Results reported in patent EP0009777A1, “Retinoic- and 7,8-dehydro-retinoic-acid-N-(carboxy)phenyl amides, process for their preparation and pharmaceutical compositions containing them” (BASF Aktiengesellschaft, priority 1978, dated 1980).

What follows are molecules tested on Hamster-Tracheen-Gewebe (assay: Reversal of keratinisation induced by vitamin A deficiency in hamster tracheal tissue (organ culture; methods of Clamon et al. 1974, Sporn et al. 1975)). Conditions: Mesocricetus auratus, keratinisation induced by vitamin A hypovitaminosis, read-out: Konzentration, in der die Keratinisierung von Hamster-Tracheen-Gewebe rückgängig gemacht / geheilt wird (wirksam).
Format: cell-based
Source text: (§1) Nachteilig an diesen bekannten Retinsäureamiden ist ihre geringe therapeutische Breite. Die Substanzen zeigen entweder eine vergleichsweise geringe Aktivität oder wie wirken schon in vergleichsweise geringen Dosen toxisch. So kann beispielsweise Retinsäure-N-etylamid schon in 2 x 10-^9 molaren Konzentrationen die durch Vitamin A-Hypovitaminose induzierte Keratinisierung von Hamster-Tracheen--Gewebe wieder rückgängig machen. Die Methodik hierzu kann G.H. Clamon et al Nature 250; 64-66 (1974) oder M.B. Sporn et al Nature 253, 47-50 (1975)) entnommen werden. Die Keratinisierung wird als praekanzerotischer Prozeß angesehen. Das Retinsäure-N-ethylamid wirkt bereits in einer Konzentration von 9 x 10-^7 molar toxisch auf Tracheenknorpelgewebe vom Hamster in Kultur, wie von M.B. Sporn et al in Nature 263, 110-113 (1976) beschrieben ist.
Bei der Prophylaxe von Praekanzerosen an keratinisiertem Hamster-Tracheen-Gewebe ist die freie Säure jedoch noch in 10^-10 molarer Konzentration wirksam und damit wesentlich aktiver als der Ethylester.
For `CCOC(=O)c1ccc(NC(=O)/C=C(C)/C=C/C=C(C)/C=C/C2=C(C)CCCC2(C)C)cc1` [Retinsäure-N-(p-ethoxycarbonyl)-phenylamid, reference compound], the minimal effective concentration was 0.01 µM.
`CCNC(=O)/C=C(C)/C=C/C=C(C)/C=C/C1=C(C)CCCC1(C)C` [Retinsäure-N-ethylamid, reference compound] was tested, and the minimal effective concentration was 0.002 µM.
For `CC1=C(/C=C/C(C)=C/C=C/C(C)=C/C(=O)Nc2ccc(C(=O)O)cc2)C(C)(C)CCC1` [all-E-Retinsäure-N-(p-carboxy)-phenylamid], the minimal effective concentration was 0.0001 µM.

Same assay, conditions: keratinisation induced by vitamin A hypovitaminosis
`CC1=C(/C=C/C(C)=C/C=C/C(C)=C\C(=O)Nc2cccc(C(=O)O)c2)C(C)(C)CCC1` [13-Z-Retinsäure-N-(m-carboxy)-phenylamid] was tested, and the “Konzentration, in der die Keratinisierung von Hamster-Tracheen-Gewebe rückgängig gemacht / geheilt wird (wirksam)” value was “Entsprechende Resultate”.
With `CC1=C(/C=C/C(C)=C/C=C/C(C)=C\C(=O)Nc2ccccc2C(=O)O)C(C)(C)CCC1` [13-Z-Retinsäure-N-(o-carboxy)-phenylamid] the “Konzentration, in der die Keratinisierung von Hamster-Tracheen-Gewebe rückgängig gemacht / geheilt wird (wirksam)” value was “Entsprechende Resultate”.
For `CC1=C(/C=C/C(C)=C/C=C/C(C)=C\C(=O)Nc2ccc(C(=O)O)cc2)C(C)(C)CCC1` [13-Z-Retinsäure-N-(p-carboxy)-phenylamid], the “Konzentration, in der die Keratinisierung von Hamster-Tracheen-Gewebe rückgängig gemacht / geheilt wird (wirksam)” value was “Entsprechende Resultate”.
In the case of `CC1=C(C#C/C(C)=C/C=C/C(C)=C/C(=O)Nc2cccc(C(=O)O)c2)C(C)(C)CCC1` [all-E-7,8-Dehydro-retinsäure-N-(m-carboxy)-phenylamid], the “Konzentration, in der die Keratinisierung von Hamster-Tracheen-Gewebe rückgängig gemacht / geheilt wird (wirksam)” value is reported as “Entsprechende Resultate”.
`CC1=C(C#C/C(C)=C/C=C/C(C)=C/C(=O)Nc2ccccc2C(=O)O)C(C)(C)CCC1` [all-E-7,8-Dehydro-retinsäure-N-(o-carboxy)-phenylamid] was tested, and the “Konzentration, in der die Keratinisierung von Hamster-Tracheen-Gewebe rückgängig gemacht / geheilt wird (wirksam)” value was “Entsprechende Resultate”.
`CC1=C(C#C/C(C)=C/C=C/C(C)=C/C(=O)Nc2ccc(C(=O)O)cc2)C(C)(C)CCC1` [all-E-7,8-Dehydro-retinsäure-N-(p-carboxy)-phenylamid] was tested, and the “Konzentration, in der die Keratinisierung von Hamster-Tracheen-Gewebe rückgängig gemacht / geheilt wird (wirksam)” value was “Entsprechende Resultate”.
For `CC1=C(/C=C/C(C)=C/C=C/C(C)=C/C(=O)Nc2cccc(C(=O)O)c2)C(C)(C)CCC1` [all-E-Retinsäure-N-(m-carboxy)-phenylamid], the “Konzentration, in der die Keratinisierung von Hamster-Tracheen-Gewebe rückgängig gemacht / geheilt wird (wirksam)” value was “Entsprechende Resultate”.
With `CC1=C(/C=C/C(C)=C/C=C/C(C)=C/C(=O)Nc2ccccc2C(=O)O)C(C)(C)CCC1` [all-E-Retinsäure-N-(o-carboxy)-phenylamid] the “Konzentration, in der die Keratinisierung von Hamster-Tracheen-Gewebe rückgängig gemacht / geheilt wird (wirksam)” value was “Entsprechende Resultate”.

What follows are molecules tested on Tracheenknorpelgewebe vom Hamster (assay: Toxicity on hamster tracheal cartilage tissue in culture (Sporn et al. 1976)). Conditions: result in words; test not named, presumably the tracheal cartilage culture.
Format: cell-based
Source text: as §1
In the case of `CCOC(=O)c1ccc(NC(=O)/C=C(C)/C=C/C=C(C)/C=C/C2=C(C)CCCC2(C)C)cc1` [Retinsäure-N-(p-ethoxycarbonyl)-phenylamid, reference compound], the “celluläre Toxizität” value is reported as “geringe celluläre Toxizität”.
For `CC1=C(/C=C/C(C)=C/C=C/C(C)=C/C(=O)Nc2ccc(C(=O)O)cc2)C(C)(C)CCC1` [all-E-Retinsäure-N-(p-carboxy)-phenylamid], the “celluläre Toxizität” value was “ebenso geringe Toxizität wie der entsprechende Ethylester”.
